Values quoted from earlier work in article PMC6247902 (Cancer immunology research, 2018).

Tested on: serum albumin
Details: read-out: affinity for serum albumin, KD

For `Cc1c(C)c2c(c(C)c1O)CC[C@@](C)(CCC[C@H](C)CCC[C@H](C)CCCC(C)C)O2` [α-tocopherol], the Kd is listed as ~7 µM.
